Measurements from ChEMBL document CHEMBL1201862, “PubChem BioAssay data set” (2004).
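The compound was tested at five concentrations on cells cultured in 96-well plates, with a 48-hour exposure period. The concentration for 50% growth inhibition is given as GI50.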 Activity calls are given as the source filed them. No stated cut-off is given here; in the data, active = GI50 up to about 1.1 µM and inactive = higher.

Tests used:
Experiment in all cases: inhibition of tumour cell growth, NCI panel, 48 h
A549 = system: A549
COLO 205 = system: COLO 205
HOP-62 = system: HOP-62
M14 = system: M14
MOLT-4 = system: MOLT-4
Malme-3M = system: Malme-3M
NCI-H226 = system: NCI-H226
NCI-H460 = system: NCI-H460
NCI/ADR-RES = system: NCI/ADR-RES
SF-539 = system: SF-539
SK-MEL-2 = system: SK-MEL-2
SK-MEL-5 = system: SK-MEL-5
SNB-19 = system: SNB-19
SW-620 = system: SW-620
UACC-257 = system: UACC-257
UACC-62 = system: UACC-62

SMILES	GI50 (A549)	GI50 (COLO 205)	GI50 (HOP-62)	GI50 (M14)	GI50 (MOLT-4)	GI50 (Malme-3M)	GI50 (NCI-H226)	GI50 (NCI-H460)	GI50 (NCI/ADR-RES)	GI50 (SF-539)	GI50 (SK-MEL-2)	GI50 (SK-MEL-5)	GI50 (SNB-19)	GI50 (SW-620)	GI50 (UACC-257)	GI50 (UACC-62)
O=C(/C=C1\C[C@H]2C=Nc3ccccc3C(=O)N2C1)NCCCCCNC(=O)/C=C1\C[C@H]2C=Nc3ccccc3C(=O)N2C1	22.9 µM (inactive)	0.532 µM (active)	14.2 µM (inactive)	3.49 µM (inactive)	1.7 µM (inactive)	2.52 µM (inactive)	> 51.5 µM (inactive)	18.3 µM (inactive)	24.3 µM (inactive)	19.1 µM (inactive)	15.1 µM (inactive)	22.2 µM (inactive)	16.1 µM (inactive)	2.1 µM (inactive)	4.36 µM (inactive)	14.7 µM (inactive)
CCN(CC)CCCNc1nc(=O)[nH]c(C)c1C(=O)Nc1cccc2cc3ccccc3cc12	> 100 µM (inactive)	> 100 µM (inactive)	> 100 µM (inactive)	> 100 µM (inactive)	> 100 µM (inactive)	> 100 µM (inactive)	> 100 µM (inactive)		> 100 µM (inactive)	> 100 µM (inactive)	> 100 µM (inactive)	> 100 µM (inactive)	> 100 µM (inactive)	> 100 µM (inactive)	> 100 µM (inactive)	> 100 µM (inactive)
Cc1c(/C=N\NC(=S)NCCNC(=S)N/N=C\c2c(C)n(C)n(-c3ccccc3)c2=O)c(=O)n(-c2ccccc2)n1C	> 100 µM (inactive)	> 100 µM (inactive)	> 100 µM (inactive)	> 100 µM (inactive)	> 100 µM (inactive)	> 100 µM (inactive)	> 100 µM (inactive)	> 100 µM (inactive)	> 100 µM (inactive)	> 100 µM (inactive)	22.4 µM (inactive)	> 100 µM (inactive)	> 100 µM (inactive)	> 100 µM (inactive)	> 100 µM (inactive)	> 100 µM (inactive)
COc1c(O)cc(O)c2c(=O)cc(-c3ccccc3)oc12 [WOGONIN]	42.9 µM (inactive)	64.3 µM (inactive)	21.7 µM (inactive)	69 µM (inactive)	36.1 µM (inactive)	85.3 µM (inactive)	40.9 µM (inactive)	26.2 µM (inactive)	60.5 µM (inactive)	42.5 µM (inactive)	43.7 µM (inactive)	34.2 µM (inactive)	58.7 µM (inactive)	54.1 µM (inactive)	87.9 µM (inactive)	35.1 µM (inactive)
CN(C)c1ccc(/C=C/c2ccc3ccccc3[n+]2C)cc1	3.13 µM (inactive)		7.13 µM (inactive)	4.12 µM (inactive)	1.47 µM (inactive)	4.53 µM (inactive)	3.13 µM (inactive)	3.64 µM (inactive)	> 100 µM (inactive)	5.24 µM (inactive)	1.48 µM (inactive)	3.06 µM (inactive)	4.31 µM (inactive)	2.12 µM (inactive)		3.62 µM (inactive)
CCOC(=O)C1c2[nH]c3ccccc3c2CCN1C(=O)c1ccc(OC)o1 (stereo not given)		> 10 µM (inactive)	> 10 µM (inactive)	> 10 µM (inactive)	> 10 µM (inactive)	1.29 µM (inactive)	> 10 µM (inactive)	> 10 µM (inactive)	> 10 µM (inactive)	> 10 µM (inactive)	> 10 µM (inactive)	> 10 µM (inactive)	> 10 µM (inactive)	> 10 µM (inactive)	> 10 µM (inactive)	
CC(C(O)c1ccccc1)C(O)(C(F)(F)F)C(F)(F)F (stereo not given)	> 100 µM (inactive)	> 100 µM (inactive)	> 100 µM (inactive)	> 100 µM (inactive)	> 100 µM (inactive)	> 100 µM (inactive)	69.7 µM (inactive)	> 100 µM (inactive)	> 100 µM (inactive)	> 100 µM (inactive)	> 100 µM (inactive)	49.7 µM (inactive)	> 100 µM (inactive)	> 100 µM (inactive)	> 100 µM (inactive)	> 100 µM (inactive)
Cc1ccc(C2=Nc3cccc4cccc(c34)N2)cc1	> 100 µM (inactive)	> 100 µM (inactive)	> 100 µM (inactive)	> 100 µM (inactive)	> 100 µM (inactive)	> 100 µM (inactive)	> 100 µM (inactive)	> 100 µM (inactive)	> 100 µM (inactive)	> 100 µM (inactive)	> 100 µM (inactive)	> 100 µM (inactive)	> 100 µM (inactive)	> 100 µM (inactive)	> 100 µM (inactive)	> 100 µM (inactive)
CC1(c2cccc(Cl)c2)CC(c2cccc(Cl)c2)=C(C#N)C(=C(C#N)C#N)N1 (stereo not given)	19.5 µM (inactive)	13.2 µM (inactive)	19.4 µM (inactive)	17.1 µM (inactive)	12.5 µM (inactive)	17.1 µM (inactive)	18.7 µM (inactive)	27.6 µM (inactive)	18.9 µM (inactive)	19.1 µM (inactive)	21.7 µM (inactive)	14.6 µM (inactive)	17.9 µM (inactive)	12.1 µM (inactive)	20.1 µM (inactive)	17 µM (inactive)
COc1ccc(C(C#N)NCCCCCCNC(C#N)c2ccc(OC)cc2)cc1 (stereo not given)	> 100 µM (inactive)	> 100 µM (inactive)	> 100 µM (inactive)	> 100 µM (inactive)	> 100 µM (inactive)	> 100 µM (inactive)	> 100 µM (inactive)		> 100 µM (inactive)	> 100 µM (inactive)	> 100 µM (inactive)	> 100 µM (inactive)	> 100 µM (inactive)	> 100 µM (inactive)	> 100 µM (inactive)	> 100 µM (inactive)
O=C(NCCCNCCN1C(=O)c2cccc3cc([N+](=O)[O-])cc(c23)C1=O)c1cc(-c2ccccc2)nc2ccccc12	3.31 µM (inactive)	1.45 µM (inactive)	6.49 µM (inactive)	1.72 µM (inactive)	0.347 µM (active)	1.81 µM (inactive)	7.26 µM (inactive)	1.55 µM (inactive)	4.22 µM (inactive)	1.98 µM (inactive)	3.31 µM (inactive)	2.09 µM (inactive)	3.72 µM (inactive)	0.955 µM (active)	2.21 µM (inactive)	5.12 µM (inactive)
O=C(c1ccccc1)C1C[C@H]2CO[C@H](c3ccccc3)N2C1=O (stereo not given in full)	> 100 µM (inactive)	> 100 µM (inactive)		> 100 µM (inactive)	97.9 µM (inactive)	> 100 µM (inactive)	> 100 µM (inactive)	> 100 µM (inactive)	> 100 µM (inactive)	> 100 µM (inactive)	> 100 µM (inactive)	> 100 µM (inactive)	> 100 µM (inactive)	> 100 µM (inactive)	> 100 µM (inactive)	> 100 µM (inactive)
CCNC(=S)N/N=C1\C(=O)Nc2ccc([N+](=O)[O-])cc21	35.7 µM (inactive)	> 100 µM (inactive)	27.7 µM (inactive)	46.7 µM (inactive)	22.4 µM (inactive)	57.8 µM (inactive)	97.7 µM (inactive)	20.4 µM (inactive)	32.8 µM (inactive)	30.2 µM (inactive)	> 100 µM (inactive)	35.1 µM (inactive)	45.4 µM (inactive)	50.2 µM (inactive)	53.5 µM (inactive)	99.1 µM (inactive)
CC(C)(C)NC(=O)CCC1C(C(=O)NC(C)(C)C)C2(Cl)C(Cl)=C(Cl)C1(Cl)C2(Cl)Cl (stereo not given)	> 100 µM (inactive)	> 100 µM (inactive)	> 100 µM (inactive)	> 100 µM (inactive)	> 100 µM (inactive)	> 100 µM (inactive)	> 100 µM (inactive)	> 100 µM (inactive)	> 100 µM (inactive)	> 100 µM (inactive)	> 100 µM (inactive)	> 100 µM (inactive)	> 100 µM (inactive)	> 100 µM (inactive)	> 100 µM (inactive)	> 100 µM (inactive)
N#Cc1c(-c2ccccc2)cc(-c2ccccc2)n(C2OCC(O)C(O)C2O)c1=S (stereo not given)	22.8 µM (inactive)	20.1 µM (inactive)	25.6 µM (inactive)	27.2 µM (inactive)	16.7 µM (inactive)	30.7 µM (inactive)	16.9 µM (inactive)	15.4 µM (inactive)	32.4 µM (inactive)	22.2 µM (inactive)	25.4 µM (inactive)	14.7 µM (inactive)	26.6 µM (inactive)	16.5 µM (inactive)	33.3 µM (inactive)	1.66 µM (inactive)
COc1ccc2[nH]cc(CCNC(=O)[C@H](Cc3ccccc3)NC(=O)[C@@H](NCC(F)(F)F)C(C)C)c2c1	27 µM (inactive)	17.9 µM (inactive)	14.8 µM (inactive)	17.7 µM (inactive)	20.4 µM (inactive)	21.6 µM (inactive)	21.4 µM (inactive)	20.1 µM (inactive)	19.1 µM (inactive)	19 µM (inactive)	19.4 µM (inactive)		28.6 µM (inactive)	28.5 µM (inactive)	19.7 µM (inactive)	19.1 µM (inactive)
COc1cc(C2c3cc4c(cc3OC(NCCO)C2C)OCO4)cc(OC)c1O (stereo not given)	10.1 µM (inactive)	21.2 µM (inactive)		9.55 µM (inactive)		6.37 µM (inactive)	49.3 µM (inactive)		4.58 µM (inactive)	13.9 µM (inactive)	4.79 µM (inactive)	4.86 µM (inactive)	29.2 µM (inactive)	5.53 µM (inactive)		2.94 µM (inactive)
